# Assay results taken from paper PMC12040169 (PLOS Biology, 2025).
# Test: in vitro
# Conditions: human, hela cells, % viability
row,SMILES,"viability at 28.5 h, 10 µM"
1,CN(C(=O)c1cc(O)nc2ccccc12)c1nccs1 [CBK297778],105%
2,CCn1cc(C(=O)O)c(=O)c2cnc(N3CCN(C(=S)Nc4ccc5c(c4)OCCO5)CC3)nc21 [CBK267895],95.8%
3,Cc1cc(C)c2cc(CN(CCO)Cc3nnnn3CC3CCCO3)c(=O)[nH]c2c1 (stereo not shown) [CBK108944],80%
4,COc1ccc(CNCc2ccc(Cl)cc2)cc1OC [CBK263315],95.4%
5,COc1cc(OC)nc(C(NC(=O)C2CCN(Cc3ccc(N(C)C)cc3)CC2)c2ccc(F)cc2)n1 (stereo not shown) [CBK148204],88.9%
6,NC(=O)c1c[nH]c2ccccc12 [CBK027556],80.7%
7,CC(C)C(C(=O)O)N(C)C(=O)OCc1ccccc1 (stereo not shown) [CBK286593],84.8%
8,Cc1nc2ccccn2c1CC(=O)N1CCCC(c2ccc(Cc3cccc(F)c3)cn2)C1 (stereo not shown) [CBK286002],91.3%
9,Cc1cccc(NC(=S)N/N=C/c2sccc2C)c1 [CBK022228],104%
10,CCN(CC(O)COc1cc(C)c(Cl)c(C)c1)S(=O)(=O)O (stereo not shown) [CBK026767N],106%
11,Cc1onc(-c2ccccc2)c1CNC(=O)Cn1cc(C)c(=O)[nH]c1=O [CBK144094],87.6%
12,CSc1ncc(C(=O)N2CCN3CCN(C)CC3C2)c(=O)[nH]1 (stereo not shown) [CBK307677],104%
13,C#CCNC(=O)CC[C@H]1CNC(=O)[C@@H]2[C@@H](CCN2CC(C)(C)C)N1C [CBK289035],95.1%
14,CN(C)c1ccc(-n2ccn(S(=O)(=O)c3ccc4ccccc4c3)c2=O)cc1 [CBK106607],93.5%
15,CCN(CC(=O)N1CCN(c2cc(Cl)ccc2C)CC1)S(=O)(=O)c1ccc2ccccc2c1 [CBK268827],92.8%
16,Fc1ccc2nc(NCC3CCCO3)sc2c1 (stereo not shown) [CBK287647],110%
17,COc1ccc(-c2cc(C(=O)NCc3cc(Cl)cc(Cl)c3)cnc2-c2ccc(Cl)cc2)cn1 [CBK037431],88.8%
18,COc1ccc(-c2noc(CN(C)C(=O)c3cccs3)n2)cc1 [CBK270286],89.6%
19,C/C(=N/NC(=O)C[N+](C)(C)C)c1nn(-c2ccc(Cl)cc2)nc1C [CBK008258C],100%
20,CC(CC(=O)N1CCC(c2cc3cccnc3[nH]2)CC1)n1ccnc1 (stereo not shown) [CBK285028],107%
21,COc1ccc(C[C@@H]2NC(=O)[C@@H]3CN(C(=O)c4ccc(OC)cc4)CCN3C2=O)cc1 [CBK289598],94.1%
22,OCC1CCCN1c1cncc(-c2cccc3ccccc23)n1 (stereo not shown) [CBK065509],91.1%

row,SMILES,"viability at 28.5 h, 10 µM"
1,S=C(NCc1ccc(Cl)cc1)Nc1ccncc1 [CBK016651],79.5%
2,O=C1c2ccc3c4c(ccc(c24)C(=O)N1c1ccncc1)C(=O)N(c1ccncc1)C3=O [CBK261390],95.4%
3,Cc1cc(I)ccc1OCCCCN1CCN(C)CC1 [CBK269652C],91.3%
4,COc1ccc(-c2c(C(F)(F)F)oc3c(CN4CC(C)OC(C)C4)c(O)ccc3c2=O)cc1OC (stereo not shown) [CBK217829],100%
5,COc1ccc(S(=O)(=O)Nc2ccc(C(=O)O)cc2)cc1OC [CBK034048],96.2%
6,CN1CCC(N(C)Cc2ccc3c(c2)OCO3)CC1 [CBK261564],86.8%
7,Nc1ncc(-c2cccc(O)c2)nc1-c1ccc(C(=O)NCCO)cc1 [CBK064143],114%
8,CN(C)/C=N/c1nc(=O)[nH]c2c1ncn2C1CC(O)C(CO)O1 (stereo not shown) [CBK201285],118%
9,O=C(NCCCN1CCOCC1)c1ccncc1 [CBK264561F],110%
10,O=C(Nc1ccc(N2CCN(C(=O)c3ccco3)CC2)cc1)c1cc([N+](=O)[O-])ccc1N1CCOCC1 [CBK269052],91.6%
11,CN(C)C(=O)c1ccc(-c2ccc3c(c2)COC(C2CCN(C(=O)CC4CCCCC4)CC2)O3)cc1 (stereo not shown) [CBK149763],114%
12,Cc1nc(C)c(CCC(=O)Nc2ccc(N3CCOCC3)cc2)c(=O)[nH]1 [CBK306059],88.4%
13,CCSc1nnc2c(n1)OC(C)Nc1ccccc1-2 (stereo not shown) [CBK025684],102%
14,O=C(c1cccc(S(=O)(=O)Nc2ccccn2)c1)N1CCCc2ccccc21 [CBK269645],84.9%
15,Cc1ccc(S(=O)(=O)c2ccc(C)c(S(=O)(=O)N3CCOCC3)c2)cc1S(=O)(=O)N1CCOCC1 [CBK261677],94.1%
16,COc1ccc(CCc2nc(C)cc(CN(C)C)c2O)cc1 [CBK278313C],106%
17,CC1Cc2ccccc2N1CCNC(=O)Cc1cn2ccsc2n1 (stereo not shown) [CBK306499],87.6%
18,COc1ccc([C@@]23CC[C@@H](NC(=O)Nc4nc(Cl)cc(Cl)n4)C[C@@H]2N(C)CC3)cc1OC [CBK067083T],96.3%
19,O=C(c1cc[nH]n1)N1CCc2nc(-c3cccc(F)c3)sc2C1 [CBK281915],84.9%
20,O=C(c1cccc2ncccc12)N1CCN(CC2CCOC2)CC1 (stereo not shown) [CBK305140],94.3%
21,c1ccc(OCCSc2nc3ccccc3nc2N2CCCC2)cc1 [CBK103694],102%
22,CCN1CCCC(CNS(=O)(=O)c2cc(-n3cccn3)ccc2OC)C1 (stereo not shown) [CBK306997],85.3%

row,SMILES,"viability at 28.5 h, 10 µM"
1,O=C(N[C@@H]1CNCCC[C@H]1O)c1ccc(OCc2ccccc2)cc1 [CBK289064],100%
2,O=C(Cc1cn2ccsc2n1)NCCCN1CCCc2ccccc21 [CBK306611],101%
3,CCOC(=O)Cc1csc(SC(C)C(=O)N2CCNC2=O)n1 (stereo not shown) [CBK304551],106%
4,O=C(O)CCc1cccnc1 [CBK175283],92.2%
5,NNc1nccc(Nc2ccccc2C(=O)O)n1 [CBK263145],95.9%
6,c1cnc(N2CCN(Cc3ccc4c(c3)OCO4)CC2)c(OC2CCCCC2)n1 [CBK082833T],95.6%
7,CNS(=O)(=O)c1ccc(CCC(=O)N(C)Cc2cnn(C)c2)cc1 [CBK305712],84.9%
8,Cc1cc(C)n(CC(=O)N2CCNCC2c2cccc(Cl)c2)n1 (stereo not shown) [CBK304116],92.7%
9,CC(=O)N(C)Cc1cccc(Nc2ncnc3c2cnn3C)c1 [CBK306319],95.3%
10,COc1ccc2[nH]c3c(c2c1)CCN(C=O)C31CCCN(CCC#N)C1 (stereo not shown) [CBK039445],107%
11,Cc1ccc(C2NS(=O)(=O)NC2=N)cc1 (stereo not shown) [CBK263848],95.2%
12,Cc1ccc(NC(=O)c2ccncc2)cc1C [CBK174646],97.5%
13,c1ccc(Cn2c(CN3CCCC3)nc3ccccc32)cc1 [CBK269612],87.7%
14,O=S(=O)(c1ccc(OC(F)(F)F)cc1)N1CCCCC1CO (stereo not shown) [CBK051527],91.7%
15,COc1cc(C=Cc2cc(C(=O)O)c3ccccc3n2)cc(Cl)c1OC(C)C [CBK296941],93.7%
16,Cc1ccc(C(=O)NC(CC(C)C)c2nnc3n2CCNCC3)c(F)c1 (stereo not shown) [CBK306817],85%
17,c1ccc2nc(N3CCCC3)c(SCCc3cnccn3)nc2c1 [CBK103695],106%
18,COC(=O)CCc1ccc(S(=O)(=O)N2CCCN(Cc3ccc(C)o3)CC2)cc1 [CBK063081],99.8%
19,CCCCCC(=O)Nc1c(C)cc(Br)cc1C [CBK058159],116%
20,Cc1ccc(-c2nccnc2OCCc2c[nH]c3ccccc23)cc1C [CBK106850],96%
21,COc1cccc(-c2nc(-c3ccc4[nH]c(=O)[nH]c4c3)cs2)c1OC [CBK298271],108%
22,CC1CCN(S(=O)(=O)c2ccc(Cl)c(C(=O)Nc3ccc(C(=O)O)cc3)c2)CC1 [CBK265170],111%

row,SMILES,"viability at 28.5 h, 10 µM"
1,CCCOc1ccc(S(=O)(=O)NCc2ccc3c(c2)OCO3)c2ccccc12 [CBK269059],94.3%
2,NC(=O)CN1CCC2(CCN(C(=O)c3cc(F)c(F)cc3F)C2)C1 (stereo not shown) [CBK132140],86.6%
3,COc1ccc(S(=O)(=O)N(CC(=O)O)C2CCCCC2)cc1Cl [CBK267997],81.5%
4,Cc1ccc(SCc2ccc(C(=O)NCCN3CCOCC3)cc2)cc1 [CBK269314],98.7%
5,c1ccc(CN2CCN(c3nccnc3OCc3cccnc3)CC2)cc1 [CBK083129T],91.3%
6,CC(C)c1cccc2c1OC(C(C)C)C(=O)N2 (stereo not shown) [CBK009286],85.2%
7,COC(=O)c1c(NC(=O)Cn2ccc([N+](=O)[O-])n2)sc2c1CCCC2 [CBK268960],116%
8,C=C(C)C(=O)OCCOC(=O)c1cc(N)cc(N)c1 [CBK261389],101%
9,CCOC(=O)CNS(=O)(=O)Cc1ccccc1[N+](=O)[O-] [CBK034439],95.3%
10,CC1(OCCCN2CCCCC2)SC(NC2CC3CCC2C3)=NC1=O (stereo not shown) [CBK115611],87.2%
11,O=C(Cn1nnc2ccccc21)c1ccc2c(c1)CCN2S(=O)(=O)c1ccccc1 [CBK286464],101%
12,Cn1c(=O)oc2cc(S(=O)(=O)N3CCN(C4CCCCC4)CC3)ccc21 [CBK268865],107%
13,Cc1ccc(NC2=NC(C(=O)Nc3ccc(C)c(C)c3)CC(=O)N2)cc1 (stereo not shown) [CBK266718],96.9%
14,CN(C)CCN(C)C(=O)Cc1csc(-c2ccccc2F)n1 [CBK282173],112%
15,CC1CN(c2cc(CO)c(F)cn2)CC2(CCOC2C)O1 (stereo not shown) [CBK304754],101%
16,Cc1cccn2c(=O)c(/C=C3\SC(=S)NC3=O)c(NCCCN3CCOCC3)nc12 [CBK264904],104%
17,CC(C)(C)C1CCc2c(sc(NC(=O)CCC(=O)O)c2C(=O)Nc2ccccc2C(F)(F)F)C1 (stereo not shown) [CBK264143],100%
18,COc1ccc(CN2CCCN(c3ccnc(OCC4COc5ccccc5O4)n3)CC2)cc1 (stereo not shown) [CBK083234T],96.8%
19,O=C(O)CCC(=O)N1CCC(Cn2cncn2)(C2CCCCC2)CC1 [CBK136809],94.8%
20,O=[N+]([O-])c1ccc2nc(Sc3nc4ccccc4[nH]3)sc2c1 [CBK263356],89.8%
21,COCCNC(=O)c1ccc(-c2ccccc2)nc1N(C)C [CBK106049],99.8%

# Same assay, conditions: human, hela cells, % viability, bulk resorufin, single well
row,SMILES,"viability at 28.5 h, 10 µM"
1,Cc1cc(C=C2C(=O)NC(=O)NC2=O)c(C)n1C1CCCCC1 [CBK263426],93.6%
